Data on five molecules can be found in PMC5216056 (Nature Communications, 2017).

One experiment addresses T1, Rat recombinant TRPV4 (Rattus norvegicus, UniProt Q9ERZ8).
T1 construct: expressed in transfected cells; host or cells: HEK293 (TRPV4-HEK-293, gift from HB Bradshaw, Indiana University)
The experiment can be described thus: cell-based. Format: cell-based.

The test system of experiment [1] is AEA cellular uptake in U937 cells. Put plainly: cells. The following applies: 10 µM. It counts as cell-based, human.
For the next experiment, the target named is T2, Rat recombinant TRPV3 (Rattus norvegicus, UniProt Q4QYD9).
T2 construct: expressed in transfected cells; host or cells: HEK293 (TRPV3-HEK-293, gift from HB Bradshaw, Indiana University)
T2 sequence (Q4QYD9 1-791): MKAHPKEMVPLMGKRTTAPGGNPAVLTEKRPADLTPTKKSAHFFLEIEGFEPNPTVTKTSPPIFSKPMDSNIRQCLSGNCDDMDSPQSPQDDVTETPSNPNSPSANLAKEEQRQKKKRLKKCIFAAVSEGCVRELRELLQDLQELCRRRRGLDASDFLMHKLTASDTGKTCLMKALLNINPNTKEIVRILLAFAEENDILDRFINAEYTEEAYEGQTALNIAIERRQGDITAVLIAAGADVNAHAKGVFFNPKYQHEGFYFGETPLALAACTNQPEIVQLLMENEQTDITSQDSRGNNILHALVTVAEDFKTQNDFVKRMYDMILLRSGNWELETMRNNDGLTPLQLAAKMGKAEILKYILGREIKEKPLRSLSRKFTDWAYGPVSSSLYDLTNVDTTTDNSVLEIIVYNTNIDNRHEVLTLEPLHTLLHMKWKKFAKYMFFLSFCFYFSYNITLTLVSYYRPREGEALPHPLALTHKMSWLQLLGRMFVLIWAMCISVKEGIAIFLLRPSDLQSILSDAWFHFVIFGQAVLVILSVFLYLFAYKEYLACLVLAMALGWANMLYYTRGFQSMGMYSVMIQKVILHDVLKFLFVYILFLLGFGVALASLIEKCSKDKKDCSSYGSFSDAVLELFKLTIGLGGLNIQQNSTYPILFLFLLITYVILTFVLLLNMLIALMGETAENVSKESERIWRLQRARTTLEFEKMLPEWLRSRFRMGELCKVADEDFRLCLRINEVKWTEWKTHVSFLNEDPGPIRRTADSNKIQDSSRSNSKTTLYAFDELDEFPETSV
Put plainly: cell-based. It counts as cell-based.

The target of the next experiment is T3, Rat recombinant TRPV2 (Rattus norvegicus, UniProt Q9WUD2).
T3 construct: expressed in transfected cells; host or cells: HEK293 (plasmid a gift from HB Bradshaw, Indiana University)
T3 sequence (Q9WUD2 1-761): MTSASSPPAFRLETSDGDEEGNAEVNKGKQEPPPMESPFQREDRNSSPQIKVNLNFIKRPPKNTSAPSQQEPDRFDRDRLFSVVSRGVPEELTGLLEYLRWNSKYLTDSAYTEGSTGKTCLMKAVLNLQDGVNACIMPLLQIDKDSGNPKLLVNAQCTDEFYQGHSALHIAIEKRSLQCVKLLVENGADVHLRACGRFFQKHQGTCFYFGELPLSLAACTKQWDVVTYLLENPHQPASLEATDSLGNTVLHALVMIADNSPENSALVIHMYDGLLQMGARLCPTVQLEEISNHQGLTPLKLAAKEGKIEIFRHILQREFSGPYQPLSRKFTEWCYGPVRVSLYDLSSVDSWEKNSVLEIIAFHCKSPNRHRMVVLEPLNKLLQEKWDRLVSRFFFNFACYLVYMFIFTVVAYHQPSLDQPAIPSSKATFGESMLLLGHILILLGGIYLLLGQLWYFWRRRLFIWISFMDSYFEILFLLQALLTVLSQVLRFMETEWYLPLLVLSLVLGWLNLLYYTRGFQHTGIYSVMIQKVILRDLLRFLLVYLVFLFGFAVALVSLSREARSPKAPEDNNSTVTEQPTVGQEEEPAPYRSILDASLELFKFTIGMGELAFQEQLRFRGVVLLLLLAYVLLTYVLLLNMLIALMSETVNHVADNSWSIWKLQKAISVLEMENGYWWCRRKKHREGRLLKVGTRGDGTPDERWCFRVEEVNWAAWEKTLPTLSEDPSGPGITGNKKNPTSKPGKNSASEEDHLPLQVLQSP
The experiment can be described thus: cell-based. Format: cell-based.

T1 sequence (Q9ERZ8 whole entry): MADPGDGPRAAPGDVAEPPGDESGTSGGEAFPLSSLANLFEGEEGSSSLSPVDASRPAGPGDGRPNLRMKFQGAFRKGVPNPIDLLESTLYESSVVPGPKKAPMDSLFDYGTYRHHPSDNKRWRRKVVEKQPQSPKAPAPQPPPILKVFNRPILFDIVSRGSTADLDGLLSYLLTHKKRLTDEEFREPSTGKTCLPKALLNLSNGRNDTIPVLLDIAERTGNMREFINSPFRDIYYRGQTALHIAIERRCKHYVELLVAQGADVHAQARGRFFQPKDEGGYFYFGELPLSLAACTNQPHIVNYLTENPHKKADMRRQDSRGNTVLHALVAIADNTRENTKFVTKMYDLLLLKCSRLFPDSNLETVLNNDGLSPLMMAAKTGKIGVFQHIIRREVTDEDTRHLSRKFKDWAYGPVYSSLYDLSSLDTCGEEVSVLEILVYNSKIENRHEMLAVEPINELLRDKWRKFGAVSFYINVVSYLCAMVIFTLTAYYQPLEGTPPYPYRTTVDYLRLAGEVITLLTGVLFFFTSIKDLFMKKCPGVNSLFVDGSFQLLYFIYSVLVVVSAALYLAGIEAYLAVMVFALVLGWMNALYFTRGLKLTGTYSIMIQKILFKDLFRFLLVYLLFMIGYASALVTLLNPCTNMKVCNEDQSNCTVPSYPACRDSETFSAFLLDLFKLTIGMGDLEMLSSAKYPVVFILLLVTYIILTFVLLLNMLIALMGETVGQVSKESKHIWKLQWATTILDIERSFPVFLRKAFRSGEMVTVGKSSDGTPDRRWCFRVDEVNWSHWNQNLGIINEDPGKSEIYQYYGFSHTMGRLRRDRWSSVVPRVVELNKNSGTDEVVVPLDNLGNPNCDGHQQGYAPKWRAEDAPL

The term EC50 denotes the concentration needed to bring the measured effect to its halfway point. `CCCCCCCCCC(=O)O[C@@H]1[C@@H](C)[C@@]2(O)[C@@H](C=C(CO)C[C@@]3(O)C(=O)C(C)=C[C@@H]23)[C@@H]2C(C)(C)[C@]12OC(=O)CCCCCCCCC` [4α-PDD, 4α-phorbol 12,13-didecanoate]: the “TRPV4 Efficacy (% ionomycin 4μM)” value at Rat recombinant TRPV4 came out at 51.9±1.7%. Further, the concentration giving a half-maximal response (EC50) on Rat recombinant TRPV4 (read-out: TRPV4 Potency EC50) was found to be 0.46 ± 0.07 µM.

Turning to `CCCCCCCC/C=C\CCCCCCCC(=O)N[C@@H](CO)Cc1ccc(O)cc1` [OMDM-2], the “AEA cellular uptake inhibition, positive controls” value in experiment [1] turned out to be 59.7±6.6%.

On to `CCCCC/C=C\C/C=C\C/C=C\C/C=C\CCCC(=O)NCc1ccoc1` [UCM707], for which the “AEA cellular uptake inhibition, positive controls” value in experiment [1] is 71.5±8.0%.

As for `Cc1ccc(C(C)C)c(O)c1` [thymol], the “TRPV3 Efficacy (% ionomycin 4μM)” value on Rat recombinant TRPV3 was found to be 34.7±0.2%. For the same molecule, at Rat recombinant TRPV3 (read-out: TRPV3 Potency EC50), the 50% effective concentration (EC50) stood at 84.1 ± 1.6 µM.

In the case of lysophosphatidylcholine [LPC], the “TRPV2 Efficacy (% ionomycin 4μM)” value on Rat recombinant TRPV2 came to 91.7±0.5%. Besides, on Rat recombinant TRPV2 (read-out: TRPV2 Potency EC50), the half-maximal effective concentration (EC50) turned out to be 3.4 ± 0.02 µM.
